# According to patent publication US20240109903A1, “SUBSTITUTED HETEROCYCLES FOR TREATING CANCER” (Northwestern University, priority 2022, published 2024):
# Read-outs that look alike come from different tables or passages of the source.
# Legend:
# [1] = system: MOLT-4; test: NCI 60 five-dose screen MOLT-4; type: cell-based; details: Homo sapiens, five-dose; for CC50: read-out: LC50 (the source's name)
# [2] = system: HS 578T; test: NCI 60 five-dose screen HS 578T; type: cell-based; details: Homo sapiens, five-dose; for CC50: read-out: LC50 (the source's name)
# [3] = system: HCT-116; test: NCI 60 five-dose screen HCT-116; type: cell-based; details: Homo sapiens, five-dose; for CC50: read-out: LC50 (the source's name) (converted)
# [4] = system: DU-145; test: NCI 60 five-dose screen DU-145; type: cell-based; details: Homo sapiens, five-dose; for CC50: read-out: LC50 (the source's name) (converted)
# [5] = system: RXF 393; test: NCI 60 five-dose screen RXF 393; type: cell-based; details: Homo sapiens, five-dose; for CC50: read-out: LC50 (the source's name) (converted)
# [6] = system: OVCAR-5; test: NCI 60 five-dose screen OVCAR-5; type: cell-based; details: Homo sapiens, five-dose; for CC50: read-out: LC50 (the source's name) (converted)
# [7] = system: MDA-MB-231/ATCC; test: NCI 60 five-dose screen MDA-MB-231/ATCC; type: cell-based; details: Homo sapiens, five-dose; for CC50: read-out: LC50 (the source's name) (converted)
# [8] = system: MALME-3M; test: NCI 60 five-dose screen MALME-3M; type: cell-based; details: Homo sapiens, MALME-3M, five-dose; for CC50: read-out: LC50 (the source's name) (converted)
# [9] = system: MV-4-11 acute myeloid leukemia cells; test: CellTiter-Glo 2.0 cell viability, MV-4-11; type: cell-based; details: Homo sapiens
# Method: 2019 October; 94(4): 1813-1823.
# Cell viability was assessed using the CellTiter-Glo 2.0 assay from Promega, which yields a signal proportional to the amount of ATP present in a cell population. Compounds were first dispensed into empty 96-well flat-bottom tissue culture-treated plates (Corning) using an Echo550. MV4-1 cells were diluted to a density of 0.1 million cells per ml, pipetted onto the compounds at a density of 1,000 cells per well for U937 and 3,000 cells per well for MV4-11, mixed, and incubated for 3 days at 37° C. with 5% C02. After incubating, 5 μl of cells from each well were added to 5 μl of CellTiter-Glo 2.0 reagent in a384-well white ProxiPlate (PerkinElmer), incubated for 20 minutes at ambient temperature, and luminescence was analyzed on an EnSpire plate reader. Graphing and regression analysis was performed in Graphpad Prism.
# [10] = system: HCC-2998; test: NCI 60 five-dose screen HCC-2998; type: cell-based; details: Homo sapiens, five-dose; for CC50: read-out: LC50 (the source's name) (converted)
# [11] = system: K-562; test: NCI 60 five-dose screen K-562; type: cell-based; details: Homo sapiens, K562, five-dose; for CC50: read-out: LC50 (the source's name)
# [12] = system: SF-539; test: NCI 60 five-dose screen SF-539; type: cell-based; details: Homo sapiens, five-dose; for CC50: read-out: LC50 (the source's name) (converted)
# [13] = system: KM12; test: NCI 60 five-dose screen KM12; type: cell-based; details: Homo sapiens, five-dose; for CC50: read-out: LC50 (the source's name) (converted)
# [14] = system: U251; test: NCI 60 five-dose screen U251; type: cell-based; details: Homo sapiens, U-251, five-dose; for CC50: read-out: LC50 (the source's name) (converted)
# [15] = system: HOP-62; test: NCI 60 five-dose screen HOP-62; type: cell-based; details: Homo sapiens, five-dose; for CC50: read-out: LC50 (the source's name) (converted)
# [16] = system: UACC-257; test: NCI 60 five-dose screen UACC-257; type: cell-based; details: Homo sapiens, five-dose; for CC50: read-out: LC50 (the source's name) (converted)
# [17] = system: IGROV1; test: NCI 60 five-dose screen IGROV1; type: cell-based; details: Homo sapiens, IGROV-1, five-dose; for CC50: read-out: LC50 (the source's name) (converted)
# [18] = system: TK-10; test: NCI 60 five-dose screen TK-10; type: cell-based; details: Homo sapiens, five-dose; for CC50: read-out: LC50 (the source's name) (converted)
# [19] = system: SR; test: NCI 60 five-dose screen SR; type: cell-based, human; details: five-dose; for GI50 / IC50 / CC50: Homo sapiens; for CC50: read-out: LC50 (the source's name)
# [20] = system: SNB-19; test: NCI 60 five-dose screen SNB-19; type: cell-based; details: Homo sapiens, five-dose; for CC50: read-out: LC50 (the source's name) (converted)
# [21] = system: NCI-H23; test: NCI 60 five-dose screen NCI-H23; type: cell-based; details: Homo sapiens, five-dose; for CC50: read-out: LC50 (the source's name) (converted)
# [22] = system: UACC-62; test: NCI 60 five-dose screen UACC-62; type: cell-based; details: Homo sapiens, five-dose; for CC50: read-out: LC50 (the source's name) (converted)
# [23] = system: M14; test: NCI 60 five-dose screen M14; type: cell-based; details: Homo sapiens, five-dose; for CC50: read-out: LC50 (the source's name) (converted)
# [24] = system: SK-MEL-28; test: NCI 60 five-dose screen SK-MEL-28; type: cell-based; details: Homo sapiens, five-dose; for CC50: read-out: LC50 (the source's name) (converted)
# [25] = MV4-11, 72 h, MV-4-11 cells, 3 days, CellTiter-Glo 2.0, read-out: IC50 (uM) [Cell Type: MV-4-11]
# [26] = MV4-11, bound stated in text, read-out: IC50 against MV-4-11 acute myeloid leukemia cells
smiles,measurement,setting,value
FC(F)(F)c1cc2c(Cl)ncnc2n1CCN1CCOCC1 [NUCC-0226680],GI50,[1],5.75 µM
same,IC50,[1],10.7 µM
same,IC (TGI),[1],28.8 µM
same,CC50,[1],≥ 100 µM
same,GI50,[2],16.6 µM
same,IC50,[2],100 µM
same,IC (TGI),[2],58.9 µM
same,CC50,[2],≥ 100 µM
same,GI50,[3],4.68 µM
same,IC50,[3],5.62 µM
same,IC (TGI),[3],100 µM
same,CC50,[3],≥ 100 µM
same,GI50,[4],28.8 µM
same,IC50,[4],50.1 µM
same,IC (TGI),[4],100 µM
same,CC50,[4],≥ 100 µM
same,GI50,[5],14.8 µM
same,IC50,[5],42.7 µM
same,IC (TGI),[5],40.7 µM
same,CC50,[5],≥ 100 µM
same,GI50,[6],100 µM
same,IC50,[6],100 µM
same,IC (TGI),[6],100 µM
same,CC50,[6],≥ 100 µM
same,GI50,[7],4.37 µM
same,IC50,[7],11.5 µM
same,IC (TGI),[7],18.2 µM
same,CC50,[7],53.7 µM
same,GI50,[8],21.9 µM
same,IC50,[8],87.1 µM
same,IC (TGI),[8],67.6 µM
same,CC50,[8],≥ 100 µM
same,IC50,[9]; [25],0.679 µM
same,IC50,[9]; [26],< 2 µM
same,GI50,[10],2.24 µM
same,IC50,[10],4.07 µM
same,IC (TGI),[10],5.13 µM
same,CC50,[10],15.8 µM
same,GI50,[11],3.02 µM
same,IC50,[11],3.72 µM
same,IC (TGI),[11],18.6 µM
same,CC50,[11],≥ 100 µM
same,GI50,[12],18.2 µM
same,IC50,[12],33.9 µM
same,IC (TGI),[12],42.7 µM
same,CC50,[12],97.7 µM
same,GI50,[13],35.5 µM
same,IC50,[13],51.3 µM
same,IC (TGI),[13],100 µM
same,CC50,[13],≥ 100 µM
same,GI50,[14],14.8 µM
same,IC50,[14],24 µM
same,IC (TGI),[14],38.9 µM
same,CC50,[14],≥ 100 µM
same,GI50,[15],38.9 µM
same,IC50,[15],100 µM
same,IC (TGI),[15],100 µM
same,CC50,[15],≥ 100 µM
same,GI50,[16],10.5 µM
same,IC50,[16],23.4 µM
same,IC (TGI),[16],30.2 µM
same,CC50,[16],87.1 µM
same,GI50,[17],2.51 µM
same,IC50,[17],3.98 µM
same,IC (TGI),[17],7.59 µM
same,CC50,[17],35.5 µM
same,GI50,[18],100 µM
same,IC50,[18],100 µM
same,IC (TGI),[18],100 µM
same,CC50,[18],≥ 100 µM
same,GI50,[19],2.88 µM
same,IC50,[19],4.37 µM
same,CC50,[19],≥ 100 µM
same,TGI,[19],4.9 −log[M]
same,GI50,[20],15.5 µM
same,IC50,[20],28.8 µM
same,IC (TGI),[20],33.1 µM
same,CC50,[20],70.8 µM
same,GI50,[21],17.8 µM
same,IC50,[21],37.2 µM
same,IC (TGI),[21],74.1 µM
same,CC50,[21],≥ 100 µM
same,GI50,[22],10.7 µM
same,IC50,[22],20.9 µM
same,IC (TGI),[22],32.4 µM
same,CC50,[22],97.7 µM
same,GI50,[23],11.5 µM
same,IC50,[23],20.4 µM
same,IC (TGI),[23],36.3 µM
same,CC50,[23],≥ 100 µM
same,GI50,[24],13.5 µM
same,IC50,[24],25.1 µM
same,IC (TGI),[24],33.1 µM
same,CC50,[24],79.4 µM
FC(F)(F)CN1CCN(CCn2c(C(F)(F)F)cc3c(Cl)ncnc32)CC1 [NUCC-0226683],GI50,[1],2.4 µM
same,IC50,[1],4.17 µM
same,IC (TGI),[1],9.12 µM
same,CC50,[1],≥ 100 µM
same,GI50,[2],14.1 µM
same,IC50,[2],100 µM
same,IC (TGI),[2],60.3 µM
same,CC50,[2],≥ 100 µM
same,GI50,[3],3.16 µM
same,IC50,[3],3.72 µM
same,IC (TGI),[3],13.2 µM
same,CC50,[3],64.6 µM
same,GI50,[4],12.6 µM
same,IC50,[4],22.4 µM
same,IC (TGI),[4],33.1 µM
same,CC50,[4],87.1 µM
same,GI50,[5],11 µM
same,IC50,[5],30.9 µM
same,IC (TGI),[5],28.2 µM
same,CC50,[5],72.4 µM
same,GI50,[6],100 µM
same,IC50,[6],100 µM
same,IC (TGI),[6],100 µM
same,CC50,[6],≥ 100 µM
same,GI50,[7],1.78 µM
same,IC50,[7],3.39 µM
same,IC (TGI),[7],4.27 µM
same,CC50,[7],11.5 µM
same,GI50,[8],14.5 µM
same,IC50,[8],33.9 µM
same,IC (TGI),[8],32.4 µM
same,CC50,[8],70.8 µM
same,IC50,[9]; [25],1.83 µM
same,IC50,[9]; [26],< 2 µM
same,GI50,[10],1.82 µM
same,IC50,[10],3.24 µM
same,IC (TGI),[10],3.31 µM
same,CC50,[10],5.89 µM
same,GI50,[11],2.82 µM
same,IC50,[11],3.47 µM
same,IC (TGI),[11],100 µM
same,CC50,[11],≥ 100 µM
same,GI50,[12],12.6 µM
same,IC50,[12],22.9 µM
same,IC (TGI),[12],28.8 µM
same,CC50,[12],66.1 µM
same,GI50,[13],17.8 µM
same,IC50,[13],30.2 µM
same,IC (TGI),[13],39.8 µM
same,CC50,[13],89.1 µM
same,GI50,[14],2.4 µM
same,IC50,[14],3.63 µM
same,IC (TGI),[14],6.46 µM
same,CC50,[14],24 µM
same,GI50,[15],13.8 µM
same,IC50,[15],28.8 µM
same,IC (TGI),[15],32.4 µM
same,CC50,[15],75.9 µM
same,GI50,[16],4.07 µM
same,IC50,[16],11 µM
same,IC (TGI),[16],17 µM
same,CC50,[16],57.5 µM
same,GI50,[17],1.78 µM
same,IC50,[17],3.16 µM
same,IC (TGI),[17],3.55 µM
same,CC50,[17],7.08 µM
same,GI50,[18],35.5 µM
same,IC50,[18],100 µM
same,IC (TGI),[18],100 µM
same,CC50,[18],≥ 100 µM
same,GI50,[19],2.14 µM
same,IC50,[19],3.55 µM
same,CC50,[19],≥ 100 µM
same,GI50,[20],13.2 µM
same,IC50,[20],24 µM
same,IC (TGI),[20],26.9 µM
same,CC50,[20],53.7 µM
same,GI50,[21],5.89 µM
same,IC50,[21],14.8 µM
same,IC (TGI),[21],26.9 µM
same,CC50,[21],≥ 100 µM
same,GI50,[22],4.68 µM
same,IC50,[22],10 µM
same,IC (TGI),[22],18.2 µM
same,CC50,[22],47.9 µM
same,GI50,[23],6.17 µM
same,IC50,[23],12.3 µM
same,IC (TGI),[23],22.9 µM
same,CC50,[23],67.6 µM
same,GI50,[24],8.13 µM
same,IC50,[24],16.6 µM
same,IC (TGI),[24],37.2 µM
same,CC50,[24],≥ 100 µM
